Legend:
[1] = target: T1, Kappa-type opioid receptor (Homo sapiens, UniProt P41145); test: Displacement of [3H]diprenorphine from human kappa opioid receptor expressed in CHO-K1 cells; type: cell-based
[2] = target: Delta-type opioid receptor (Homo sapiens, UniProt P41143); test: Displacement of [3H]diprenorphine from human delta opioid receptor expressed in CHO-K1 cells; type: cell-based
[3] = target: Mu-type opioid receptor (Homo sapiens, UniProt P35372); test: Displacement of [3H]diprenorphine from human mu opioid receptor expressed in CHO-K1 cells; type: cell-based
Chain of Mu-type opioid receptor (P35372 whole entry): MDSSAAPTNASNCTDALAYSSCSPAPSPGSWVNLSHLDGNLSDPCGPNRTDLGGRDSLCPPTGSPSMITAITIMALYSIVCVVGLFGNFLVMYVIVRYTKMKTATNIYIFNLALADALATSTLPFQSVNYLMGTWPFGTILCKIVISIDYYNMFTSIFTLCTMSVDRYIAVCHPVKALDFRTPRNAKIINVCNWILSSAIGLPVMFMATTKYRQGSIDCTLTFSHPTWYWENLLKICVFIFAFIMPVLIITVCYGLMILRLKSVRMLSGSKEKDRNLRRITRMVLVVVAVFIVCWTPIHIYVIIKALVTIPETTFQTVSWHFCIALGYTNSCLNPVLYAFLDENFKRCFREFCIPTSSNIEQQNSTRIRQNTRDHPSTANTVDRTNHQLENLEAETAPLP

[4] = target: T1, Kappa-type opioid receptor; test: Agonist activity at human kappa opioid receptor transfected in CHO cells by [35S]GTP-gamma-S binding assay; type: functional, cell-based
[5] = Displacement of [3H]diprenorphine from human kappa/mu opioid chimera 4 receptor
[6] = Displacement of [3H]diprenorphine from human kappa/mu opioid chimera 3 receptor

T1 sequence (P41145 whole entry): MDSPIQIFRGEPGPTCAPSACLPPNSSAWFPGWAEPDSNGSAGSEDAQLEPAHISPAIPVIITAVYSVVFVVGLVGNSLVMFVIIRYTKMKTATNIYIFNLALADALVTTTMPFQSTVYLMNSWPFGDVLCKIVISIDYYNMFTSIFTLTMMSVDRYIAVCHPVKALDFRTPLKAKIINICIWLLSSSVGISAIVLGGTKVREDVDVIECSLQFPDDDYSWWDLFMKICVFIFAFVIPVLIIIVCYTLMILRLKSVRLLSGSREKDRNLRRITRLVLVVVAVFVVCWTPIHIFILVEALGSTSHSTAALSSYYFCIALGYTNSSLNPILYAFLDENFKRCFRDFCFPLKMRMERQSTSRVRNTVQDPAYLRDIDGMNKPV
Chain of Delta-type opioid receptor (P41143 whole entry): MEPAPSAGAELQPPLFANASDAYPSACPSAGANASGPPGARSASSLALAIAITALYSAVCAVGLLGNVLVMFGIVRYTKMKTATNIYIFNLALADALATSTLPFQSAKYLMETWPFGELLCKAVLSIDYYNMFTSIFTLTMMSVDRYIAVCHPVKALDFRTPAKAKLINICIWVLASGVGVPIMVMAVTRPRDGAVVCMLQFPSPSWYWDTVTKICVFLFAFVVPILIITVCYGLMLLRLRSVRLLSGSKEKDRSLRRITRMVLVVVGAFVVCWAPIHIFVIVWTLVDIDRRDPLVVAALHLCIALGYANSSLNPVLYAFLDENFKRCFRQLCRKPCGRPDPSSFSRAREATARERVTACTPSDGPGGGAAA

COc1cc(CC(=O)N(C)[C@H](CN2CC[C@H](O)C2)c2ccccc2)c(S(=O)(=O)N2CCN(C)CC2)cc1OC gave a Ki [1] of 3.8 nM, a Ki [2] of 4.4 nM and a Ki [3] of 27 nM. It also gave an EC50 [4] of 0.71 nM.
In the case of COc1cc(CC(=O)N(C)[C@H](CN2CCCC2)c2ccccc2)c(S(=O)(=O)N(C)C)cc1OC, the Ki [1] is reported as 0.5 nM, the Ki [2] is reported as 56 nM and the Ki [3] is reported as 42 nM. For the same compound, the EC50 [4] was 0.26 nM, the Ki [5] was 2.5 nM and the Ki [6] was 3.2 nM.
Compound COc1cc(CC(=O)N(C)[C@H](CN2CC[C@H](O)C2)c2ccccc2)c(S(=O)(=O)N(C)C)cc1OC has a Ki [1] of 1.6 nM, a Ki [2] of 9.3 nM and a Ki [3] of 25 nM. The EC50 [4] was 0.24 nM, the Ki [5] was 2.8 nM and the Ki [6] was 6.4 nM.
CN(C(=O)Cc1cc2c(cc1S(=O)(=O)N(C)C)OCO2)[C@H](CN1CC[C@H](O)C1)c1ccccc1 gave a Ki [1] of 0.54 nM, a Ki [2] of 6.2 nM and a Ki [3] of 34 nM. For the same compound, the EC50 [4] was 0.11 nM, the Ki [5] was 0.5 nM and the Ki [6] was 4.5 nM.
CN(C(=O)Cc1cc2c(cc1S(=O)(=O)N(C)Cc1ccccc1)OCO2)[C@H](CN1CCCC1)c1ccccc1 gave a Ki [1] of 0.19 nM, a Ki [2] of 3.4 nM and a Ki [3] of 6.5 nM. The EC50 [4] was 0.12 nM, the Ki [5] was 1.7 nM and the Ki [6] was 5.5 nM.
For COc1cc(CC(=O)N(C)[C@H](CN2CC[C@H](O)C2)c2ccccc2)c(S(=O)(=O)N2CCCC2)cc1OC, the Ki [1] was 1.1 nM, the Ki [2] was 0.85 nM and the Ki [3] was 5.9 nM. It also gave an EC50 [4] of 0.12 nM, a Ki [5] of 8.3 nM and a Ki [6] of 38 nM.
For COc1cc(CC(=O)N(C)[C@H](CN2CCCC2)c2ccccc2)c(S(=O)(=O)N(C)Cc2ccccc2)cc1OC, the Ki [1] was 0.68 nM, the Ki [2] was 1.5 nM and the Ki [3] was 21 nM. For the same compound, the EC50 [4] was 0.54 nM, the Ki [5] was 4.8 nM and the Ki [6] was 3.3 nM.
With CN(C(=O)Cc1cc2c(cc1S(=O)(=O)N(C)C)OCO2)[C@H](CN1CCCC1)c1ccccc1 the Ki [1] was 0.22 nM, the Ki [2] was 110 nM and the Ki [3] was 47 nM. The EC50 [4] was 0.1 nM, the Ki [5] was 0.71 nM and the Ki [6] was 5.2 nM.
With COc1cc(CC(=O)N(C)[C@H](CN2CCCC2)c2ccccc2)c(S(=O)(=O)N2CCOCC2)cc1OC the Ki [1] was 0.55 nM, the Ki [2] was 9.4 nM and the Ki [3] was 15 nM. The EC50 [4] was 0.17 nM, the Ki [5] was 2.2 nM and the Ki [6] was 1.3 nM.
With COc1cc(CC(=O)N(C)[C@H](CN2CCCC2)c2ccccc2)c(S(=O)(=O)N2CCCC2)cc1OC the Ki [1] was 0.31 nM, the Ki [2] was 5.4 nM and the Ki [3] was 14 nM. The EC50 [4] was 0.11 nM, the Ki [5] was 1.2 nM and the Ki [6] was 1.5 nM.
In the case of COc1cc(CC(=O)N(C)[C@H](CN2CC[C@H](O)C2)c2ccccc2)c(S(=O)(=O)N2CCOCC2)cc1OC, the Ki [1] is reported as 1.4 nM, the Ki [2] is reported as 1.8 nM and the Ki [3] is reported as 9 nM. It also gave an EC50 [4] of 0.34 nM.
Compound COc1cc(CC(=O)N(C)[C@H](CN2CCCC2)c2ccccc2)c(S(=O)(=O)N2CCN(C)CC2)cc1OC has a Ki [2] of 23 nM, a Ki [3] of 52 nM and an EC50 [4] of 0.39 nM. For the same compound, the Ki [5] was 6.8 nM and the Ki [6] was 4.8 nM.
Work on CC[C@H](C)[C@H](NC(=O)[C@H](CCCNC(=N)N)NC(=O)[C@H](CCCNC(=N)N)NC(=O)[C@H](CC(C)C)NC(=O)[C@H](Cc1ccccc1)NC(=O)CNC(=O)CNC(=O)[C@@H](N)Cc1ccc(O)cc1)C(=O)N[C@@H](CCCNC(=N)N)C(=O)N1CCC[C@H]1C(=O)N[C@@H](CCCCN)C(=O)N[C@@H](CC(C)C)C(=O)N[C@@H](CCCCN)C(=O)N[C@@H](Cc1c[nH]c2ccccc12)C(=O)N[C@@H](CC(=O)O)C(=O)N[C@@H](CC(N)=O)C(=O)N[C@@H](CCC(N)=O)C(=O)O [DYNORPHIN A (1-17)] yielded a Ki [5] of 0.18 nM and a Ki [6] of 0.31 nM.
